In patent publication US20010044463A1, “Methods for controlling gram negative bacteria in mammals” (priority 1997, published 2001):
Values after ≈ are worked out from the molar mass of the structure shown.

Columns and labels:
[1] = system: H. pylori (urease positive) ATCC Number 51652; test: Minimum Inhibitory Concentration (MIC) blood agar plate growth inhibition; assay type: cell-based, Helicobacter pylori; conditions: Table XVII, Blood agar base + 3% sheep blood
Description: (§1) Monensin (Sigma Cat. No. M-5273) was dissolved in 100% absolute ethanol (AAPER Alcohol and Chemical Co.) at a concentration of 20 mg/ml. Subsequent dilutions were made in ethanol immediately prior to use. Nigericin (Sigma Cat. No. N-7143) was dissolved in DMSO at 2 mg/ml. Subsequent dilutions were made in BHI medium (Brain heart infusion broth, Difco #0037-07-0) immediately prior to use.
(§2) Blood agar base (BAB) was prepared containing 1.5% agar and autoclaved. 20 ml samples of autoclaved BAB were poured into 50 mL tubes and placed in a 56° C. water bath.
(§3) 100 μl of a drug (final concentration equivalent to 1:200 of original concentration) and 1.2 ml of sheep blood (Colorado Senun Company # CS-1112) (blood diluted in a 1:1 buffer providing a 3% concentration of blood per 20 ml medium sample) were added to 20 ml sample of media and mixed. The mixed media preparation was poured into a petri dished and allowed to solidify.
(§4) Prior to inoculation of petri plates, bacteria or cultures were examined for morphology under a phase microscope to confirm motility and physical characteristics, e.g., spiral shaped. The organisms were washed off the plate into PBS (Phosphate buffered saline) (80.0 g NaCl, 2.0 g KCl, 2.4 g KH2PO4 11.5 g Na2HPO4 or 24.4 g Na2HPO4/2H2O per 1 liter deionized water, pH 7.2, sterilized by autoclaving) and diluted into BHI at a concentration of 10^8/ml (O.D. of 0.3 units diluted 1:30). Ten microliters of solution containing 10^6 organisms were spread onto a petri plate and grown under microaerophilic conditions for 3 days unless specified. Control organisms were grown under microaerophilic conditions.
(§5) Inhibition of growth was determined by the amount of colonies present within the petri plate. The following factors were used for growth inhibition: ±=0-20 colonies, +=20-50 colonies, ++=50-200 colonies and +++=200+ colonies.

[2] = system: H. pylori ATCC 43504; test: as above; assay type: cell-based, Helicobacter pylori; conditions: for growth (amount of colonies present within the petri plate): Table VII, urease positive
Description: Subsequent dilutions were made in ethanol immediately prior to use. […] Subsequent dilutions were made in BHI medium (Brain heart infusion broth, Difco #0037-07-0) immediately prior to use.
as §2
The mixed media preparation was poured into a petri dished and allowed to solidify.
as §4, §5

[3] = system: Staph ATCC 14775; test: Blood agar plate growth inhibition, control organism; assay type: cell-based; conditions: Table XV, Non microaerophilic conditions
Description: as §1, §2, §3
as §4, with “Control organisms were grown under microaerophilic conditions.” left out
as §5

[4] = final drug concentration 0.1 ng/ml
[5] = final drug concentration 1 ng/ml
[6] = final drug concentration 10 ng/ml
[7] = final drug concentration 100 ng/ml
[8] = final drug concentration 1 μg/ml
[9] = final drug concentration 10 μg/ml

Row | SMILES | growth (amount of colonies present within the petri plate) [1, 4] | growth (amount of colonies present within the petri plate) [1, 5] | growth (amount of colonies present within the petri plate) [1, 6] | growth (amount of colonies present within the petri plate) [1, 7] | growth (amount of colonies present within the petri plate) [1, 8] | growth (amount of colonies present within the petri plate) [1, 9] | growth (amount of colonies present within the petri plate) [2, 9] | growth (amount of colonies present within the petri plate) [3, 6] | growth (amount of colonies present within the petri plate) [3, 7] | growth (amount of colonies present within the petri plate) [3, 8] | growth (amount of colonies present within the petri plate) [3, 9] | MIC ([2]; Helicobacter pylori, ATCC43504) | growth (amount of colonies present within the petri plate) ([2]; final drug concentration 0.098 μg/ml) | growth (amount of colonies present within the petri plate) ([2]; final drug concentration 0.195 μg/ml) | growth (amount of colonies present within the petri plate) ([2]; final drug concentration 0.39 μg/ml) | growth (amount of colonies present within the petri plate) ([2]; final drug concentration 0.78 μg/ml) | growth (amount of colonies present within the petri plate) ([2]; final drug concentration 1.56 μg/ml)
1 | CNc1ccc2oc(C[C@H]3O[C@@]4(CC[C@H]3C)O[C@H]([C@H](C)C(=O)c3ccc[nH]3)[C@H](C)C[C@H]4C)nc2c1C(=O)O [A23187] | (+++) (+++=200+ colonies) | (+++) (+++=200+ colonies) | (+++) (+++=200+ colonies) | (+++) (+++=200+ colonies) | No growth | No growth |  |  |  |  |  |  |  |  |  |  | 
2 | C[C@H](CCC(=O)O)C[C@H](C)C[C@H](C)C(=O)/C=C(\O)[C@H](C)C[C@H](C)C/C=C/[C@@H](C)[C@@H](O)[C@@H](C)[C@@H](O)C[C@@H]1CC[C@@](C)([C@H]2CC[C@@](C)([C@@H](C)O)O2)O1 [Ionomycin, ionomycin] | (+++) (+++=200+ colonies) | (+++) (+++=200+ colonies) | (+++) (+++=200+ colonies) | (+++) (+++=200+ colonies) | (+++) (+++=200+ colonies) | (+++) (+++=200+ colonies) |  |  |  |  |  |  |  |  |  |  | 
3 | CC[C@@H](C(=O)[C@@H](C)[C@@H](O)[C@H](C)CCc1ccc(C)c(O)c1C(=O)O)[C@H]1O[C@](CC)([C@H]2CC[C@](O)(CC)[C@H](C)O2)C[C@@H]1C [Lasalocid, lasalocid] | (+++) (+++=200+ colonies) | (+++) (+++=200+ colonies) | (+++) (+++=200+ colonies) | (+++) (+++=200+ colonies) | (+++) (+++=200+ colonies) | (+++) (+++=200+ colonies) | (+++) (+++=200+ colonies) | (+++) (+++=200+ colonies) | (+++) (+++=200+ colonies) | (+++) (+++=200+ colonies) | No growth |  |  |  |  |  | 
4 | CC[C@@H](C(=O)[C@@H](C)[C@@H](O)[C@H](C)[C@@H]1O[C@@H]([C@@H](CC)C(=O)O)CC[C@@H]1C)[C@H]1O[C@]2(C=C[C@@H](O)[C@]3(CC[C@@](C)([C@H]4CC[C@](O)(CC)[C@H](C)O4)O3)O2)[C@H](C)C[C@@H]1C [Salinomycin, salinomycin] | (+++) (+++=200+ colonies) | (+++) (+++=200+ colonies) | (+++) (+++=200+ colonies) | (+++) (+++=200+ colonies) | (+++) (+++=200+ colonies) | No growth |  | (+++) (+++=200+ colonies) | (+++) (+++=200+ colonies) | (+++)^1 (+++=200+ colonies) | No growth | 6.25 µg/mL (≈ 8.32 µM) | (+++) (+++=200+ colonies) | (+++) (+++=200+ colonies) | (+++) (+++=200+ colonies) | (+++) (+++=200+ colonies) | (+++) (+++=200+ colonies)
